Test results taken from patent US12583858B2 (Genentech, Inc., priority 2015, dated 2026).

What follows are compounds tested against T1, TDO2 (Homo sapiens, UniProt P48775) (assay: TDO2 cell assay (NFK GreenScreen, SW48 cells)). Settings: SW48 cells (high TDO expressing), 200 uM tryptophan, 24 hours; Table 3; read-out: TDO2 Cell Fluor EC50.
T1 construct: decreased levels of NFK in SW48 cells (high TDO expressing cells)
Format: cell-based

T1 sequence (P48775 whole entry): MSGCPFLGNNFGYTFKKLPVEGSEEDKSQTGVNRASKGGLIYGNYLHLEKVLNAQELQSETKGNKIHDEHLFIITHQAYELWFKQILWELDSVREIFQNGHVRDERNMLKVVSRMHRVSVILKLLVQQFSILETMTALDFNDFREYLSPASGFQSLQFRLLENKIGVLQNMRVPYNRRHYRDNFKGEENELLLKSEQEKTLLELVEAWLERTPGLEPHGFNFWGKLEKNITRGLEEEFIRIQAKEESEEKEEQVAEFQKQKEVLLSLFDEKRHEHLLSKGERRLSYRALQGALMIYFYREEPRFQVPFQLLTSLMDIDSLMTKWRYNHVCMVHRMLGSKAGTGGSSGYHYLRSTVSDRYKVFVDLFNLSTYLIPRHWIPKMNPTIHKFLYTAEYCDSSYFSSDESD

Row | EC50 | SMILES
1 | 0.2 µM | CCC(O)C1c2ccccc2-c2cncn21 (single isomer, unassigned) [Example 137c]
2 | 0.23 µM | O[C@@H]1c2nccnc2CC[C@H]1[C@H]1c2ccccc2-c2cncn21 (single isomer, unassigned) [Example 123b]
3 | > 25 µM | OC1c2cnnn2CCC1C1c2ccccc2-c2cncn21 (single isomer, unassigned) [Example 146b]
4 | 22 µM | O=S1(=O)CC(O)C(C2c3ccccc3-c3cncn32)C1 (single isomer, unassigned) [Example 38c]
5 | 0.74 µM | NC(=O)c1ccc2c(c1)CCC(C1c3ccccc3-c3cncn31)C2O (single isomer, unassigned) [Example 60d]
6 | 6.8 µM | O[C@H]1[C@@H]([C@@H]2c3ccccc3-c3cncn32)CCC12CCOCC2 [Example 68a, (1S,2R)-2-((R)-5H-imidazo[5,1-a]isoindol-5-yl)-8-oxaspiro[4.5]decan-1-ol]
7 | 19 µM | C[C@@](O)(C1CCOCC1)[C@@H]1c2ccccc2-c2cncn21 (racemic) [Example 131a, Mixture of(S)-1-((R)-5H-imidazo[5,1-a]isoindol-5-yl)-1-(tetrahydro-2H-pyran-4-yl)ethan-1-ol and (R)-1-((S)-5H-imidazo[5,1-a]isoindol-5-yl)-1-(tetrahydro-2H-pyran-4-yl)ethan-1-ol]
8 | 14 µM | NC(=O)c1ccc2c(n1)CCC(C1c3ccccc3-c3cncn31)C2O (single isomer, unassigned) [Example 104d]
9 | 0.54 µM | NS(=O)(=O)N1CCC2(CCC(C3c4ccccc4-c4cncn43)C2O)CC1 (single isomer, unassigned) [Example 182b]
10 | > 25 µM | OC1CCOCC1C1c2c(Cl)cccc2-c2cncn21 (single isomer, unassigned) [Example 69a]
11 | > 25 µM | NS(=O)(=O)N1CCC(O)C(C2c3ccccc3-c3cncn32)CC1 (single isomer, unassigned) [Example 101a, 4-hydroxy-5-(5H-imidazo[5,1-a]isoindol-5-yl)azepane-1-sulfonamide]
12 | 2.6 µM | CC1(O)CCOCC1C1c2ccccc2-c2cncn21 (single isomer, unassigned) [Example 61b]
13 | 0.24 µM | OC1CC2(CCC2)C1C1c2ccccc2-c2cncn21 (single isomer, unassigned) [Example 67d]
14 | > 25 µM | CN1CC[C@H]([C@H]2c3ccccc3-c3cncn32)[C@@H](O)C1 [Example 83a, (3R,4R)-4-[(5S)-5H-imidazo[4,3-a]isoindol-5-yl]-1-methylpiperidin-3-ol]
15 | > 25 µM | Cn1cc2c(n1)[C@@H](O)[C@@H]([C@@H]1c3ccccc3-c3cncn31)CC2 (single isomer, unassigned) [Example 139-1c]
16 | 12 µM | N#Cc1ccc2c(c1)[C@@H](O)[C@@H]([C@H]1c3ccccc3-c3cncn31)CC2 (stereo in doubt) [Example 113d, (7R,8S)-8-hydroxy-7-((S)-5H-imidazo[5,1-a]isoindol-5-yl)-5,6,7,8-tetrahydronaphthalene-2-carbonitrile]
17 | 0.22 µM | CS(=O)(=O)N1CC2(CC(C3c4ccccc4-c4cncn43)C2O)C1 (centres unmarked) [Example 183, 6-(5H-imidazo[5,1-a]isoindol-5-yl)-2-(methylsulfonyl)-2-azaspiro[3.3]heptan-5-ol]
18 | 0.056 µM | NS(=O)(=O)N1CC[C@@H]([C@@H]2c3ccccc3-c3cncn32)[C@H](O)C1 (single isomer, unassigned) [Example 39d]
19 | 10 µM | OC1CC2(CC2)C1C1c2ccccc2-c2cncn21 (single isomer, unassigned) [Example 72c]
20 | 0.06 µM | OC1c2nonc2CCC1C1c2ccccc2-c2cncn21 (single isomer, unassigned) [Example 163b]
21 | > 25 µM | CC(C)(C)OC(=O)N1CC2(CC(C3c4ccccc4-c4cncn43)C2O)C1 (single isomer, unassigned) [Example 41g, tert-butyl 7-hydroxy-6-(5H-imidazo[1,5-b]isoindol-5-yl)-2-azaspiro[3.3]heptane-2-carboxylate]
22 | 11 µM | OC1CC2(CC2)C1C1c2ccccc2-c2cncn21 (single isomer, unassigned) [Example 72f]
23 | 7.4 µM | CS(=O)(=O)c1ccc2c(c1)CCC(C1c3ccccc3-c3cncn31)C2O (single isomer, unassigned) [Example 36c]
24 | 1.8 µM | O[C@@H]1CCOC[C@H]1[C@H]1c2ccc(F)cc2-c2cncn21 (single isomer, unassigned) [Example 34a]
25 | > 25 µM | CC1(O)CCC1C1c2ccccc2-c2cncn21 (single isomer, unassigned) [Example 35c]

More lines, now with the values behind:

Row | SMILES | EC50
26 | NS(=O)(=O)N1CC[C@@H]([C@H]2c3ccccc3-c3cncn32)[C@H](O)C1 (single isomer, unassigned) [Example 39b] | 3.7 µM
27 | Cc1cc2c(cn1)C(O)C(C1c3ccccc3-c3cncn31)C2 (single isomer, unassigned) [Example 59d] | > 25 µM
28 | NC(=O)C1CCC(O)(C2c3ccccc3-c3cncn32)CC1 (single isomer, unassigned) [Example 140b] | > 25 µM
29 | CS(=O)(=O)N1CCC(O)C(C2c3ccccc3-c3cncn32)CC1 (single isomer, unassigned) [Example 92c] | 18 µM
30 | OC1(C2c3ccccc3-c3cncn32)CCCc2ccncc21 (single isomer, unassigned) [Example 141a] | 17 µM
31 | OC1(C2c3ccccc3-c3cncn32)CCCOC1 (single isomer, unassigned) [Example 144d] | > 25 µM
32 | CC(C)C(O)C1c2ccccc2-c2cncn21 (single isomer, unassigned) [Example 51a] | > 25 µM
33 | N#Cc1cnn2c1[C@@H](O)[C@@H]([C@H]1c3ccccc3-c3cncn31)CC2 (single isomer, unassigned) [Example 156d] | > 25 µM
34 | OC1c2ncccc2CCC1C1c2ccccc2-c2cncn21 (single isomer, unassigned) [Example 63b] | 19 µM
35 | CC1(C)OCC(C2c3ccccc3-c3cncn32)C1O (single isomer, unassigned) [Example 85c] | 11 µM
36 | CC(C)(C)OC(=O)N1CCCC(O)(C2c3ccccc3-c3cncn32)C1 (single isomer, unassigned) [Example 127a] | 3.7 µM
37 | N#Cc1ccc2c(c1)CCC(C1c3ccccc3-c3cncn31)C2O (single isomer, unassigned) [Example 62b] | 0.31 µM
38 | OC1c2cncnc2CCC1C1c2ccccc2-c2cncn21 (single isomer, unassigned) [Example 94a] | 2.3 µM
39 | OC1CC(CF)(CF)C1C1c2ccccc2-c2cncn21 (single isomer, unassigned) [Example 150b] | 2.1 µM
40 | OC(C1CC1)C1c2ccccc2-c2cncn21 (single isomer, unassigned) [Example 52c] | > 25 µM
41 | Cc1ncc2c(n1)CCC(C1c3ccccc3-c3cncn31)C2O (single isomer, unassigned) [Example 124b] | 0.29 µM
42 | OC1C(C2c3ccccc3-c3cncn32)CCC12CCOCC2 (single isomer, unassigned) [Example 68d] | > 25 µM
43 | OC1c2ccccc2CC1C1c2ccccc2-c2cncn21 (single isomer, unassigned) [Example 19f] | 4.4 µM
44 | CC1(C)OC(C)(C)C(C2c3ccccc3-c3cncn32)C1O (single isomer, unassigned) [Example 84c] | 13 µM
